Experimental data reported in US20160298165A1 (priority 2013, published 2016).

Columns and labels:
M. tuberculosis H37Rv = type: cell-based, Mycobacterium tuberculosis
[1] = test system: M. tuberculosis H37Rv ΔRD1 ΔpanCD; type: cell-based; conditions: treated for 3 days
[2] = test system: M. tuberculosis mc26230 (H37Rv ΔRD1 ΔpanCD); type: cell-based; conditions: anaerobic chamber; 4 mM VC
M. tuberculosis [3] = type: cell-based, Mycobacterium tuberculosis
M. tuberculosis [4] = type: cell-based, Mycobacterium tuberculosis; remark: listed apart in the source
[5] = test system: M. tuberculosis H37Rv ΔRD1 ΔpanCD; type: cell-based; conditions: cysteine 4 mM, 24 h
[6] = test system: M. tuberculosis H37Rv ΔRD1 ΔpanCD; type: cell-based; conditions: cysteine 4 mM, 24 h; remark: listed apart in the source
M. tuberculosis [7] = type: cell-based, Mycobacterium tuberculosis; remark: listed apart in the source

OC(CS)C(O)CS (stereo not drawn) [Dithio- threitol]
sterilization of cultures when combined with INH (M. tuberculosis H37Rv): sterilized

CC[C@@H](CO)NCCN[C@@H](CC)CO [EMB, Ethambutol, reference compound]
decrease in CFU (M. tuberculosis H37Rv): very slow decrease

NNC(=O)c1ccncc1 [INH, Isoniazid]
intracellular levels of ferrous ions vs untreated sample [1]: very high
decrease in CFUs (M. tuberculosis H37Rv): 3-4 log

O=C1O[C@H]([C@@H](O)CO)C(O)=C1O [VC, Vitamin C]
effect on M. tuberculosis viability [2]: no effect
cells with DNA breaks relative to untreated culture or culture treated with VE (M. tuberculosis [3]): tenfold higher
percentage of cells with DNA breaks (M. tuberculosis [3]): 17-25%
increase in total ROS (M. tuberculosis [4]): Up to threefold
total ROS concentration relative to the untreated sample (M. tuberculosis [4]): did not substantially alter

Cc1c(C)c2c(c(C)c1O)CC[C@@](C)(CCC[C@H](C)CCC[C@H](C)CCCC(C)C)O2 [VE, vitamin E, reference compound]
ROS level vs untreated samples (M. tuberculosis [4]): lowered ROS level

N[C@@H](CS)C(=O)O [cysteine]
cystine concentration vs untreated sample [5]: 100 times
levels of free thiols [6]: lower
decrease in CFUs (M. tuberculosis H37Rv): 6 log
effect of cysteine on killing of M. tuberculosis by ETH (M. tuberculosis H37Rv): did not increase the killing
growth of M. tuberculosis with cysteine alone (M. tuberculosis H37Rv): not affected

Cc1ccc2ccc3ccc(C)nc3c2n1 [neocuproine, reference compound]
decrease in CFUs (M. tuberculosis H37Rv): 5 log
growth of M. tuberculosis with neocuproine alone (M. tuberculosis H37Rv): no impact on the growth

Antimycin
cidal activity (M. tuberculosis [7]): no cidal activity
